Reference: US12459951B2, “Compounds that interact with RAS superfamily proteins for treatment of cancers, inflammatory diseases, rasopathies, and fibrotic disease” (SHY Therapeutics, LLC, priority 2022, dated 2025)

How the values were obtained:
Akt phosphorylation = test: Akt Phosphorylation Assay (western blot), Panc-1; format: cell-based, human; settings: at 10 μM, * = activation
Method in brief: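 Phospho-Akt (Ser473) was measured by western blot in lysates of KRas G12D Panc-1 cells exposed to test compound for 6 h at 37 °C, either at 10 μM final with 0.3% DMSO or as serial dilutions for IC50. One format used overnight 0.5% FBS starvation followed by a 15 min pulse of 1.5 ng/ml EGF. The other used cells in 10% FBS with no stimulation.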

IL6 = test: IL-6 Quantification Assay (ELISA), LPS-stimulated RAW 264.7; format: cell-based; parameters: inhibition: dose or concentration left out as unconfirmed; settings: Mus musculus, RAW264.7, read-out: IL-6: % inh.
TNF-alpha = TNF-alpha Quantification Assay (ELISA), LPS-stimulated RAW 264.7; format: cell-based; settings: Mus musculus, RAW264.7; at 10 μM; read-out: TNFα: % inh.
KRas G12C mutant = test: Ras GTP Binding Domain Inhibition Assay (Ras Superfamily Assay); settings: 20 μM compound; for KRas G12C mutant + SOS: % inh.: with SOS; for KRas G12C mutant: % inh.: without SOS
Method in brief: (§1)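 His-tagged GTPases immobilised on nickel-coated plates, pre-incubated with compound (20 μM single point, or serial dilution for IC50) 3 h at room temperature, with or without 10-30 μg/mL Sos (residues 556-1049) in the final hour. Bound Cy3- or Cy5-GTP (100 nM, 45 min) measured by fluorescence after washing.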

KRas G12D mutant = test: as above; settings: 20 μM compound; for KRas G12D mutant + SOS: % inh.: with SOS; for KRas G12D mutant: % inh.: without SOS
Method in brief: as §1

KRas Q61H mutant = test: as above; settings: 20 μM compound; for KRas Q61H mutant + SOS: % inh.: with SOS; for KRas Q61H mutant: % inh.: without SOS
Method in brief: as §1

KRas wild type = test: as above; settings: 20 μM compound; for KRas wild type + SOS: % inh.: with SOS; for KRas wild type: % inh.: without SOS
Method in brief: as §1

Rac-1 = molecular target: T1, Rac-1 (Homo sapiens, UniProt P63000); test: as above; settings: read-out: Rac-1: % inh.
T1 construct: made in house
Method in brief: as §1

Rho-A = molecular target: T2, Rho-A (Homo sapiens, UniProt P61586); test: as above; settings: read-out: Rho-A: % inh..
T2 construct: made in house
T2 sequence (P61586 whole entry): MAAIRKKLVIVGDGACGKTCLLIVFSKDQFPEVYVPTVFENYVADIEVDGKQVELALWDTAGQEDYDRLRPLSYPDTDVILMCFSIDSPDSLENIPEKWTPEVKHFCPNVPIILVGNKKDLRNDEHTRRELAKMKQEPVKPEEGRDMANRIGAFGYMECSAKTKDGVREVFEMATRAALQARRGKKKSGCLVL
Method in brief: as §1

| SMILES | % inh of Akt phosphorylation in Panc-1 (Akt phosphorylation) | inhibition (IL6) | inhibition at 10 µM (TNF-alpha) | KRas G12C mutant + SOS: % inh. (KRas G12C mutant) | KRas G12C mutant: % inh. (KRas G12C mutant) | KRas G12D mutant + SOS: % inh. (KRas G12D mutant) | KRas G12D mutant: % inh. (KRas G12D mutant) | KRas Q61H mutant + SOS: % inh. (KRas Q61H mutant) | KRas Q61H mutant: % inh. (KRas Q61H mutant) | KRas wild type + SOS: % inh. (KRas wild type) | KRas wild type: % inh. (KRas wild type) | inhibition at 20 µM (Rac-1) | inhibition at 20 µM (Rho-A) | inhibition at 10 µM (IL6; at 10 μM) |
| --- | --- | --- | --- | --- | --- | --- | --- | --- | --- | --- | --- | --- | --- | --- |
| COc1cccc(-c2cn3nc(-c4nccn4C)nc(O)c3c2-c2ccccc2)c1Cl [Compound 28, 6-(2-Chloro-3-methoxyphenyl)-2-(1-methyl-1H-imidazol-2-yl)-5-phenylpyrrolo[2,1-f][1,2,4]triazin-4-ol] | A* (1-25% activation) | 25 to 49% | 1 to 24% | A (A = 1-25% inhibition) | A (A = 1-25% inhibition) | A (A = 1-25% inhibition) | A (A = 1-25% inhibition) | A (A = 1-25% inhibition) | A (A = 1-25% inhibition) | A (A = 1-25% inhibition) | A (A = 1-25% inhibition) | 26 to 49% | 1 to 25% |  |
| COc1cccc(-c2cn3nc(-c4nccn4C)nc(N[C@@H]4CC[C@H](OC)C4)c3c2-c2ccccc2)c1Cl (racemic) [Compound 33, rac 6-(2-Chloro-3-methoxyphenyl)-N-((1R,3S)-3-methoxycyclopentyl)-2-(1-methyl-1H-imidazol-2-yl)-5-phenylpyrrolo[2,1-f][1,2,4]triazin-4-amine] | D (85-100% inhibition) |  | 75 to 100% | 0 (0 = 0% inhibition) | A (A = 1-25% inhibition) | 0 (0 = 0% inhibition) | A (A = 1-25% inhibition) | 0 (0 = 0% inhibition) | A (A = 1-25% inhibition) | 0 (0 = 0% inhibition) | A (A = 1-25% inhibition) | 0% | 1 to 25% | 75 to 100% |
| Cc1c(-c2ccn(C(C)C)n2)cn2nc(-c3nccn3C)nc(Nc3cc(C4CC4)n[nH]3)c12 [Compound 68, N-(3-Cyclopropyl-1H-pyrazol-5-yl)-6-(1-isopropyl-1H-pyrazol-3-yl)-5-methyl-2-(1-methyl-1H-imidazol-2-yl)pyrrolo[2,1-f][1,2,4]triazin-4-amine] | D* (85-100% activation) | 1 to 24% | 25 to 49% | D (D = 76-100% inhibition) | D (D = 76-100% inhibition) | D (D = 76-100% inhibition) | D (D = 76-100% inhibition) | D (D = 76-100% inhibition) | D (D = 76-100% inhibition) | D (D = 76-100% inhibition) | D (D = 76-100% inhibition) | 76 to 100% | 76 to 100% |  |
| Cc1c(-c2ccn(C(C)C)n2)cn2nc(-c3nccn3C)nc(Nc3nc(C4CC4)no3)c12 [Compound 70, 3-Cyclopropyl-N-(6-(1-isopropyl-1H-pyrazol-3-yl)-5-methyl-2-(1-methyl-1H-imidazol-2-yl)pyrrolo[2,1-f][1,2,4]triazin-4-yl)-1,2,4-oxadiazol-5-amine] | C* (46-84% activation) | 50 to 74% | 1 to 24% | 0 (0 = 0% inhibition) | A (A = 1-25% inhibition) | A (A = 1-25% inhibition) | A (A = 1-25% inhibition) | 0 (0 = 0% inhibition) | A (A = 1-25% inhibition) | 0 (0 = 0% inhibition) | A (A = 1-25% inhibition) | 1 to 25% | 1 to 25% |  |
| COCCNc1nc(-c2nccn2C)nn2cc(-c3cccc(OC)c3Cl)c(-c3ccccc3)c12 [Compound 29, 6-(2-Chloro-3-methoxyphenyl)-N-(2-methoxyethyl)-2-(1-methyl-1H-imidazol-2-yl)-5-phenylpyrrolo[2,1-f][1,2,4]triazin-4-amine] | D (85-100% inhibition) | 75 to 100% | 75 to 100% | A (A = 1-25% inhibition) | 0 (0 = 0% inhibition) | A (A = 1-25% inhibition) | 0 (0 = 0% inhibition) | 0 (0 = 0% inhibition) | 0 (0 = 0% inhibition) | 0 (0 = 0% inhibition) | A (A = 1-25% inhibition) | 0% | 1 to 25% |  |
| COc1cc(Nc2nc(-c3nccn3C)nn3cc(-c4ccncc4)c(C)c23)ncn1 [Compound 49, N-(6-Methoxypyrimidin-4-yl)-5-methyl-2-(1-methyl-1H-imidazol-2-yl)-6-(pyridin-4-yl)pyrrolo[2,1-f][1,2,4]triazin-4-amine] | D* (85-100% activation) | 1 to 24% | 1 to 24% | 0 (0 = 0% inhibition) | A (A = 1-25% inhibition) | B (B = 26-49% inhibition) | C (C = 50-75% inhibition) | D (D = 76-100% inhibition) | D (D = 76-100% inhibition) | 0 (0 = 0% inhibition) | B (B = 26-49% inhibition) | 26 to 49% | 26 to 49% |  |
| COc1cccc(-c2cn3nc(-c4nccn4C)nc(N[C@@H]4CC[C@@H](OC)C4)c3c2-c2ccccn2)c1F (racemic) [Compound 46, rac 6-(2-Fluoro-3-methoxyphenyl)-N-((1R,3R)-3-methoxycyclopentyl)-2-(1-methyl-1H-imidazol-2-yl)-5-(pyridin-2-yl)pyrrolo[2,1-f][1,2,4]triazin-4-amine] | 0 (0% inhibition) | 75 to 100% | 75 to 100% | A (A = 1-25% inhibition) | B (B = 26-49% inhibition) | A (A = 1-25% inhibition) | B (B = 26-49% inhibition) | D (D = 76-100% inhibition) | D (D = 76-100% inhibition) | A (A = 1-25% inhibition) | A (A = 1-25% inhibition) | 50 to 75% | 26 to 49% |  |
| Cc1c(-c2ccn(C(C)C)n2)cn2nc(-c3nccn3C)nc(Nc3cnccn3)c12 [Compound 62, 6-(1-Isopropyl-1H-pyrazol-3-yl)-5-methyl-2-(1-methyl-1H-imidazol-2-yl)-N-(pyrazin-2-yl)pyrrolo[2,1-f][1,2,4]triazin-4-amine] | D* (85-100% activation) | 25 to 49% | 1 to 24% | 0 (0 = 0% inhibition) | A (A = 1-25% inhibition) | A (A = 1-25% inhibition) | B (B = 26-49% inhibition) | A (A = 1-25% inhibition) | A (A = 1-25% inhibition) | 0 (0 = 0% inhibition) | A (A = 1-25% inhibition) | 50 to 75% | 26 to 49% |  |
| Cc1c(-c2ccn(C(C)C)n2)cn2nc(-c3nccn3C)nc(Nc3ccccn3)c12 [Compound 57, 6-(1-Isopropyl-1H-pyrazol-3-yl)-5-methyl-2-(1-methyl-1H-imidazol-2-yl)-N-(pyridin-2-yl)pyrrolo[2,1-f][1,2,4]triazin-4-amine] | D* (85-100% activation) | 1 to 24% | 0% | D (D = 76-100% inhibition) | D (D = 76-100% inhibition) | D (D = 76-100% inhibition) | D (D = 76-100% inhibition) | D (D = 76-100% inhibition) | D (D = 76-100% inhibition) | D (D = 76-100% inhibition) | D (D = 76-100% inhibition) | 76 to 100% | 76 to 100% |  |
